Patent publication US20230348369A1 (Cytokinetics, Inc., priority 2020, published 2023)
Where two headings read alike, the source gives them in different places.

Target: human NAMPT (Homo sapiens, UniProt P43490)
Experiment: Human recombinant enzyme assay (NMN fluorescence biochemical assay, activation of NAMPT)
Outline: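 Activation of recombinant human NAMPT (6 nM) with 2.5 mM ATP, 20 μM PRPP and 150 μM nicotinamide in 50 mM HEPES pH 7.2, 1 mM DTT, 1 mM CHAPS, 50 mM NaCl, 100 mM MgCl2; 60 min, ambient temperature. NMN formed was derivatized with acetophenone/KOH/formic acid, fluorescence read at 355/460 nm after 40 min.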

[1] = Table A, human recombinant NAMPT, NMN formation, 60 min
[2] = Table A, human recombinant NAMPT, NMN formation, 60 min, read-out: EC50 Human

human NAMPT, sequence (P43490 whole entry): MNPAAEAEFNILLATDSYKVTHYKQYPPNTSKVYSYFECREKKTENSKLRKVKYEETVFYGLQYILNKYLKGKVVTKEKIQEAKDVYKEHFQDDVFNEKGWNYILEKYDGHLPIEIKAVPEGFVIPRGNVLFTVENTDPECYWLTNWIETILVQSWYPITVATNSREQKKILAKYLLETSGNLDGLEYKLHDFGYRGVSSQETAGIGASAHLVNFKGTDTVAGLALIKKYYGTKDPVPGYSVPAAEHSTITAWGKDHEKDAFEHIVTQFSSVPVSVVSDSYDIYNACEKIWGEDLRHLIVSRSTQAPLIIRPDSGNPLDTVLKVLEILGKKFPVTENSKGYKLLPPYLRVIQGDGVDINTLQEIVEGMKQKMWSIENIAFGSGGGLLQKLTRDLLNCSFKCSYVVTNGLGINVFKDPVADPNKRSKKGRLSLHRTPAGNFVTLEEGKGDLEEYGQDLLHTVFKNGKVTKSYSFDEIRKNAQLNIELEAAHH

Compound | AC1.4 Human [1] | EC50 [2] | EC50
COc1ccc(CNC(=O)NC2CC3(C2)CC(C(=O)N2CCN(C)CC2CO)C3)cc1 (stereo not shown) [Compound 113, 1-(6-(2-(hydroxymethyl)-4-methylpiperazine-1-carbonyl)spiro[3.3]heptan-2-yl)-3-(4-methoxybenzyl)urea] | 3.8 µM | 51.6 µM | 
O=C(NCc1ccc(Cl)cc1)NC1CC2(C1)CC(NC(=O)c1ccccc1)C2 (stereo not shown) [Compound 114, N-(6-(3-(4-chlorobenzyl)ureido)spiro[3.3]heptan-2-yl)benzamide] | 11.0 µM | 33.1 µM | 
O=C(Cc1ccccc1)NC1CC2(C1)CC(NC(=O)NCc1ccc(Cl)cc1)C2 (stereo not shown) [Compound 115, N-(6-(3-(4-chlorobenzyl)ureido)spiro[3.3]heptan-2-yl)-2-phenylacetamide] | 10.2 µM | 14.7 µM | 
COc1ccc(CNC(=O)NC2CC3(C2)CN(S(=O)(=O)c2ccccc2Cl)C3)cc1 [Compound 116, 1-(2-((2-chlorophenyl)sulfonyl)-2-azaspiro[3.3]heptan-6-yl)-3-(4-methoxybenzyl)urea] | 8.0 µM |  | 51.3 µM
COc1ccc(CNC(=O)NC2CC3(C2)CN(S(=O)(=O)Cc2ccccc2Cl)C3)cc1 [Compound 117, 1-(2-((2-chlorobenzyl)sulfonyl)-2-azaspiro[3.3]heptan-6-yl)-3-(4-methoxybenzyl)urea] | 3.2 µM | 33.9 µM | 
COc1ccc(CNC(=O)NC2CC3(C2)CN(S(=O)(=O)CCc2ccccc2Cl)C3)cc1 [Compound 118, 1-(2-((2-chlorophenethyl)sulfonyl)-2-azaspiro[3.3]heptan-6-yl)-3-(4-methoxybenzyl)urea] | 3.0 µM | 14.2 µM | 
O=C(NCc1ccc(Cl)cc1)NC1CC2(C1)CC(N(Cc1ccccc1)Cc1ccccc1)C2 (stereo not shown) [Compound 119, 1-(4-chlorobenzyl)-3-(6-(dibenzylamino)spiro[3.3]heptan-2-yl)urea] | 3.8 µM | 16.7 µM | 
COc1ccc(CNC(=O)NC2CC3(C2)CC(C(=O)N2CCN(C(C)C)CC2)C3)cc1 (stereo not shown) [Compound 122, 1-(6-(4-isopropylpiperazine-1-carbonyl)spiro[3.3]heptan-2-yl)-3-(4-methoxybenzyl)urea] | 5.9 µM | 47.6 µM | 
COc1ccc(CNC(=O)NC2CC3(C2)CC(C(=O)N2CCN(Cc4cnn(C)c4)CC2)C3)cc1 (stereo not shown) [Compound 123, 1-(4-methoxybenzyl)-3-(6-(4-((1-methyl-1H-pyrazol-4-yl)methyl)piperazine-1-carbonyl)spiro[3.3]heptan-2-yl)urea] | 2.8 µM | 51.5 µM | 
COc1ccc(CNC(=O)NC2CC3(C2)CC(C(=O)N2CCN(Cc4ccncc4)CC2)C3)cc1 (stereo not shown) [Compound 124, 1-(4-methoxybenzyl)-3-(6-(4-(pyridin-4-ylmethyl)piperazine-1-carbonyl)spiro[3.3]heptan-2-yl)urea] | 1.3 µM | 24.9 µM | 
COc1ccc(CNC(=O)NC2CC3(C2)CC(C(=O)N2CCN(Cc4ccccn4)CC2)C3)cc1 (stereo not shown) [Compound 125, 1-(4-methoxybenzyl)-3-(6-(4-(pyridin-2-ylmethyl)piperazine-1-carbonyl)spiro[3.3]heptan-2-yl)urea] | 7.9 µM | 51.2 µM | 
COc1ccc(CNC(=O)NC2CC3(CC(CN4CCCc5c(F)cc(F)cc54)C3)C2)cc1 (stereo not shown) [Compound 127, 1-(6-((5,7-difluoro-3,4-dihydroquinolin-1(2H)-yl)methyl)spiro[3.3]heptan-2-yl)-3-(4-methoxybenzyl)urea] | 1.4 µM | 33.1 µM | 
COc1ccc(CNC(=O)NC2CC3(CC(CN4CCc5ccccc54)C3)C2)cc1 (stereo not shown) [Compound 128, 1-(6-(indolin-1-ylmethyl)spiro[3.3]heptan-2-yl)-3-(4-methoxybenzyl)urea] | 0.6 µM | 20.8 µM | 
COc1ccc(CNC(=O)NC2CC3(CC(CN4Cc5ccccc5C4)C3)C2)cc1 (stereo not shown) [Compound 129, 1-(6-(isoindolin-2-ylmethyl)spiro[3.3]heptan-2-yl)-3-(4-methoxybenzyl)urea] | 7.3 µM | 30.2 µM | 
